# From US10324096B2, “Method of diagnosis, prognostic or treatment of neurodegenerative disease” (CENTRE NATIONAL DE LA RECHERCHE SCIENTIFIQUE, priority 2011, dated 2019)
# Columns and labels:
# [1] = system: abnormally phosphorylated Tau in wild type differentiated SH-SY5Y cells; test: Suppression of GAG sulfation by chlorate in differentiated SH-SY5Y cells, pTau western blot; assay type: cell-based, human; settings: FIG. 8A, chlorate 50 mM
# Description: Two cell types were used, (i) a wild type SH-SY5Y cells (mutation-independent model) in where abnormal phosphorylation is induced by oxidative stress and (ii) cells stably transfected with complete human tau protein having the mutation hTAU-P301L (mutation dependent model), characteristic of FTDP-17. As a consequence of the Tau mutation cells present high levels of abnormal phosphorylated Tau.
# For the mutation dependent model cells were cultured as previously described (Schaeffer V et al., J Neurobiol 2006, July; 66(8):868-881). For the mutation independent model, human SH-SY5Y neuroblastoma cells were propagated in Dulbeco's modiced Eagle's medium (Gibco) with 5% fetal bovine serum and penicillin/streptomycin (5% CO2 and 95% air). For both models cells were plated at a density of 10^6 cells/cm^2 on 25 cm^2 dish and incubated under standard conditions for 24 h. […]
# After harvesting, cells were and incubated in an ice bath for 5 min in a lysis buffer (50 mM Trus-HCl, 150 mM NaCl, 1% Triton X-100, 1 mM EDTA, 10 mM NaF, pH 8.0) containing 1 mM Na3VO4, and 0.1% protease inhibitor cocktail (Sigam). Lysates were centrifuged and proteins in the supernatants were quantified using the BCA protein assay kit (Pierce). […] Abnormally phosphorylated tau was detected by using anti-tau-pSer199 and anti-tau-pSer396 (Millipore) as described above. […] Results were expressed as a ratio of target protein to actine. […]
# [2] = biological target: T1, recombinant human tau protein (441-amino acid isoform), GSK-3 (Homo sapiens, UniProt P10636); test: Phosphorylation of recombinant human Tau by GSK-3 in the presence of GAGs, heparin or oligosaccharides; assay type: biochemical; settings: 3-O-sulfated groups in heparin
# T1 construct: purchased Millipore
# T1 sequence (P10636 1-441 isoform P10636-8): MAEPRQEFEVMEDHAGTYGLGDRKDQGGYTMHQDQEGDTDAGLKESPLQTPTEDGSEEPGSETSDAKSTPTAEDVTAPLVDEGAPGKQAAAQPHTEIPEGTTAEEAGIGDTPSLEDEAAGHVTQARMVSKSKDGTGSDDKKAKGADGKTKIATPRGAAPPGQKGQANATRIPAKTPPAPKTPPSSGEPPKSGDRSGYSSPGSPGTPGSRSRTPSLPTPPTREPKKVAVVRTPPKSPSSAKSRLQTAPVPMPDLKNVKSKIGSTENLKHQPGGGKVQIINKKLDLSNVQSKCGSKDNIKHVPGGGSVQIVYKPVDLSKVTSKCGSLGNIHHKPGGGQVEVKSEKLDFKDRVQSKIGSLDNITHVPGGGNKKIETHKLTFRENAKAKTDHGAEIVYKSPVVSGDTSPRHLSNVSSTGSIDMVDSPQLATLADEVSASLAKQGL
# Description: Phosphorylation by glycogen synthase kinase 3 (GSK-3). Recombinant hTau41 (Millipore) was incubated for 0 to 24 h with […] of recombinant GSK3 (Millipore) in the presence or absence of 50 mg/ml of heparin, Arixtra®, or the heparin hexasaccharide non 3-O-sulfated. Phosphorylation assays (0.050 ml) were carried out at 30° C. and comprised 25 mM Tris-HCl, pH 7.4, 0.1 mM EGTA, 0.1 mM sodium orthovanadate, 2.5 mM PKI (a specific inhibitor of cyclic AMP-dependent protein kinase), protease inhibitors (0.5 mM phenylmethylsulfonyl fluoride, 5 mg/ml aprotinin, 5 mg/ml leupeptin,
# and 0.5 mg/ml pepstatin), tau protein ([…]), 10 mM magnesium acetate, 2 mM [g-^32P]ATP (approximately 100 cpm/nmol) 5 units/ml recombinant reconstituted GSK3. Reactions were initiated with ATP and aliquots were removed at various times ranging from 10 min to 24 h and used for SDS-polyacrylamide gel electrophoresis and immunoblotting. Immunoblots were performed as described (Masato Hasegawa et al., J Bio Chem. (1997) 272 (52), pp. 33118-33124). Alternatively, incorporation of ^32P radioactivity was measured after adsorption to Whatman P-81 paper, as described. Heparin and extracted GAGs were included in the assays at 50 mg/ml.
# [3] = system: transgenic hTAU-P301L zebrafish embryos; test: Morpholino injection in transgenic hTAU-P301L zebrafish embryos: survival, anomalies; assay type: in vivo; settings: morpholino 0.5 mM
# Text: Transgenic hTAU-P301L embryos with morpholino-mediated knock-down of the 3-OST-2 coding gene with SEQ ID NO: 5 and the non-injected embryos were screened on the intensity of DsRed fluorescent protein at 24 hpf. With morpholino-mediated knock-down of the 3-OST-2 coding gene in the transgenic hTAU-P301L zebrafish model the level of hyperphosphorylation in Tau protein was investigated. First of all, the obtained zebrafish embryos from the crossing between WT line and transgenic zebrafish carrying the P301L mutation in Tau protein were injected with different morpholino concentrations, respectively 0.3 mM, 0.5 mM and 1 mM. The numbers of living embryos were assessed at 24 hours after injection and survival rates were determined. […] Thus, this concentration was chosen for further analyses (FIG. 12).
# (§1) Morpholino oligonucleotides (MO) were designed to target the flanking region in the zebrafish 3-OST-2 gene in order to block the translation of the HS3ST2 mRNA: 5′-ATGGCATATAGGT TCCTGTCAAGCC . . . -3′. The morpholino antisense oligonucleotides were designed by Gene Tools (LLC One Summerton Way, Philomath, Oreg., USA). MO HS3ST2-ATG: 5′-[…]-3′.
# The morpholinos were diluted to three different concentrations in Danieau buffer (58 mM NaCl, 0.7 mM KCl, 0.4 mM MgSO4, 0.6 mM Ca(NO3), 5 mM HEPES pH 7.6) and co-injected with 0.3 mg/mL dextran rhodamine (Molecular Probes, Eugene, Oreg., USA). […]
# [4] = system: zebrafish 3-OST-2 gene / abnormally phosphorylated Tau protein; test: Morpholino knock-down of 3-OST-2 in hTAU-P301L zebrafish: hyperphosphorylated Tau; assay type: in vivo
# Description: as §1
# The morpholinos were diluted to three different concentrations in Danieau buffer (58 mM NaCl, 0.7 mM KCl, 0.4 mM MgSO4, 0.6 mM Ca(NO3), 5 mM HEPES pH 7.6) and co-injected with 0.3 mg/mL dextran rhodamine (Molecular Probes, Eugene, Oreg., USA). Transgenic zebrafish embryos at one-cell or two-cell stage were microinjected with approximately 2 nL of 0.5 mM, or 1 mM morpholino solution using a pressure microinjector and a Zeiss stereomicroscope (Zeiss). […]
# The embryos resulting from crossing between AB line and transgenic zebrafish carrying the P301L mutated Tau gene were screened for the DsRed fluorescent protein at 24 hpf and at 48 hpf the vitellus was removed. […] Protein concentration was measured according to the Bradford method.
# Levels of P-Tau181, characteristic of taupathy associated pathologies, were measured using a combination of monoclonal antibody HT7 (which recognizes amino acids 159-163 in normal Tau and P-Tau) and biotinylated monoclonal antibody AT270 (which recognizes P-Tau containing the phosphorylated threonine 181 residue). […]
# human Tau protein = biological target: T2, human Tau protein (Homo sapiens, UniProt P10636); test: Heparin/glycosaminoglycans ELISA competition assay towards human Tau protein (immobilized heparin); assay type: binding; settings: FIG. 20
# T2 construct: purchased R&D systems
# T2 sequence (P10636 1-441 isoform P10636-8): as above
# Description: FIGS. 6A and 6B presents the higher capacity of GAGs extracted from hippocampus of AD to bind to human tau protein compared to GAGs from age-matched normal control brains. An ELISA test was used to compare the capacity of the different GAGs to bind to tau protein. The ELISA competing assay used immobilized heparin to bind au in the absence of competing GAGs. For the assay, GAGs (used from 0.1 to 1000 ng/mL) were added to the ELISA together with the tau protein (used at 100 ng/mL). After 1 h incubation at 4° C. plates were washed and remaining tau signal was recorded in the plate. X-axis: % Tau protein binding to total sulfated GAGs. EC50 stands for the GAG concentration necessary to inhibit 50% of the tau protein binding to immobilized heparin. Y-axis: Control (white histogram), AD (black histogram).
# AD and control hippocampus extracted GAGs binding to human Tau protein (R&D systems) was evaluated by an ELISA based competition binding essay (Najjam et al., 1997). ELISA type 96 wells plates were coated with a 2 μg/mL BSA-heparin conjugate solution prepared as previously described (Najjam et al., 1997). After washing with PBS/0.05% Tween-20 (washing solution), wells were saturated with 3% BSA in PBS. […] Peroxidase activity was measured by the tetramethylbenzidine (TMB) detection kit (Pierce). […]
compound,measurement,setting,value
"[O-][Cl+2]([O-])O [chlorate, sodium chlorate]","levels of abnormally phosphorylated Tau epitopes S199, T231, S262, S396 (pTau/β actine)",[1],Decreased levels of the abnormally phosphorylated Tau epitopes
heparin,induction of abnormal Tau phosphorylation in vitro,[2],able to induce abnormal Tau phosphorylation in vitro
5′-GGCTTGACAGGAACCTATATGCCAT-3′ (all phosphorodiamidate morpholino (PMO)) [MO HS3ST2-ATG],major anomalies or deformities,[3],did not give major anomalies or deformities
same,survival rate,[3]; 24 hours post-injection,67%
same,accumulation of abnormally phosphorylated Tau protein in spinal cord,"[4]; FIG. 13, anti-PHF-tau antibody clone AT8",diminishes the accumulation of abnormally phosphorylated Tau protein in spinal cord
same,accumulation of abnormal Tau hyperphosphorylation in vivo,[4]; decreasing expression of 3-OST-2 by morpholino,accumulation of abnormal Tau hyperphosphorylation was markedly decreased
fucoidan,competition with heparin for binding to human Tau protein (percentage of binding of test compound to hTau),human Tau protein,able to compete with heparin for the binding to human Tau protein
